Test: Solubility of [RuCl2(arene)]2 complexes in 100 ml of solvent at 25° C. in various solvents

## [RuCl2(mesitylene)]2
Solvent Acetone
  solubility in 100 ml of solvent, Acetone: 0.01 g/100 ml
Solvent Chloroform
  solubility in 100 ml of solvent, Chloroform: 0.3 g/100 ml
Solvent Methanol
  solubility in 100 ml of solvent, Methanol: 0.03 g/100 ml
Solvent THF
  solubility in 100 ml of solvent, THF: 0.5 g/100 ml
Solvent Toluene
  solubility in 100 ml of solvent, Toluene: 0.2 g/100 ml

Source: patent US7880025B2, “Ruthenium silyl-arene complex , and method for production thereof” (Takasago International Corporation, priority 2009, dated 2011)
